From article PMC8365602 (Journal of Medicinal Chemistry, 2021)
Where two headings read alike, the source gives them in different places.

Assays:
5-LOX [1] = target: T1, 5-LOX (Homo sapiens, UniProt P09917); settings: supplementary csv; # published in ref Pein et al.4; read-out: IC50 (5-LOX PMNL); cited from earlier work
T1 sequence (P09917 1-674): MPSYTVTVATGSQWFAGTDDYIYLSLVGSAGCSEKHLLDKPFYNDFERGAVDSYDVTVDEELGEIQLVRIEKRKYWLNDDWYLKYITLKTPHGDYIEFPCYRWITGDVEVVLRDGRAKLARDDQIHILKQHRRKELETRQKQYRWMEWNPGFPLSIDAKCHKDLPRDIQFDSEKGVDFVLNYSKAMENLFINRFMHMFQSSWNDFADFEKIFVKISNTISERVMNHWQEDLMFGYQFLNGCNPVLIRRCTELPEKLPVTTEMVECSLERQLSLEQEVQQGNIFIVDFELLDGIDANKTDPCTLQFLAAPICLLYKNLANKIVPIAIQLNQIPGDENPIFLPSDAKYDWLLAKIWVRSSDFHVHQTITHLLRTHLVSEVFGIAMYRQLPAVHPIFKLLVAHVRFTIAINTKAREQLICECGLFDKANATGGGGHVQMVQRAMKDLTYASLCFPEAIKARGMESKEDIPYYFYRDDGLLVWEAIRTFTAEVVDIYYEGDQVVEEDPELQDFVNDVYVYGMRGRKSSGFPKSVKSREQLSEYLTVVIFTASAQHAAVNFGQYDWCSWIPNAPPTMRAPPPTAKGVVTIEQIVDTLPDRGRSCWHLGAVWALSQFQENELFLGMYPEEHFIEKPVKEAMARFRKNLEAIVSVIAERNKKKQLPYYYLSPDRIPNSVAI

5-LOX [2] = target: T1, 5-LOX; experiment: 5-LOX product formation in activated PMNL; settings: for remaining activity at 3 µM / remaining activity at 1 µM: PMNL;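 as to all read-outs here: freshly isolated human PMNL in PBS pH 7.4 plus glucose, preincubated 10 min at 37 °C with compound, 5-LOX products (all-trans LTB4 isomers, 5-HETE) quantified by RP-HPLC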
5-LOX [3] = target: T1, 5-LOX; design: made in house; host or cells: E. coli Bl21 (DE3); settings: supplementary csv; # published in ref Pein et al.4; read-out: IC50 (5-LOX enzyme); cited from earlier work
5-LOX [4] = target: T1, 5-LOX; experiment: Cell-free 5-LOX activity (isolated human recombinant enzyme)
Protocol: Human recombinant 5-LOX was expressed in E. coli Bl21 (DE3) cells that were transformed with pT3–5LOX (wt 5-LOX), 5-LOX_3W (triple mutation of Trp102Ala/Trp13Ala/Trp75Ala), or 5-LOX_R (single mutant of the Arg101Asp plasmid) and purified on an ATP-agarose column (Econo-Pac, Bio-Rad, Hercules, CA) by affinity chromatography.[6],[75]
Purified 5-LOX (0.5 μg in PBS pH 7.4 containing 1 mM EDTA and 1 mM ATP) was preincubated with the vehicle (DMSO) or test compounds for 10 min and prewarmed at 37 °C.

[5] = read-out: 5-LOX PMNL residual activity at 3 µM (Table S1)
[6] = read-out: 5-LOX enzyme residual activity at 1 µM (Table S1)
[7] = read-out: 5-LOX PMNL residual activity at 3 μM
[8] = read-out: 5-LOX PMNL IC50, 5-LOX product formation in activated PMNL, mean ± SEM
[9] = read-out: 5-LOX enzyme IC50, isolated human 5-LOX, cell-free, mean ± SEM
[10] = read-out: 5-LOX enzyme residual activity at 1 μM

remaining activity at 3 µM (5-LOX [2]; [7]) | SMILES | IC50 (5-LOX [2]; [8]) | IC50 (5-LOX [4]; [9]) | remaining activity at 1 µM (5-LOX [4]; [10]) | further results
40.8 ± 3.5% | Cc1cc(O)cc2c1O[C@](C)(CCCC(C)CCCC(C)CCCC(C)C(=O)O)CC2 (stereo partly drawn) [Compound 12b] | – | – | 51.4 ± 3.1% | –
1.6 ± 1.6% | C/C(=C\CC/C(C)=C/CC[C@]1(C)CCc2cc(O)c(C)c(C)c2O1)CC/C=C(\C)C(=O)O [Compound 13c] | – | – | 4.1 ± 3.6% | –

Further lines, the compound ahead of its results:

SMILES | remaining activity at 3 µM (5-LOX [2]; [7]) | IC50 (5-LOX [2]; [8]) | IC50 (5-LOX [4]; [9]) | remaining activity at 1 µM (5-LOX [4]; [10]) | further results
C/C(=C\CC/C(C)=C/CC/C(C)=C/CC[C@]1(C)CCc2cc(O)cc(C)c2O1)CO [Compound 10c] | – | – | – | – | IC50 (5-LOX [1]): 1260 ± 330 nM; remaining activity at 3 µM (5-LOX [2]; [5]): 8.8 ± 1.9%; IC50 (5-LOX [3]): 150 ± 50 nM; remaining activity at 1 µM (5-LOX [4]; [6]): 2.7 ± 1.5%
CC(C)=CCC/C(C)=C/CC/C(C)=C/CC[C@]1(C)CCc2c(C)c(O)c(C)c(C)c2O1 [Compound 6a] | – | – | – | – | IC50 (5-LOX [1]): > 3000 nM; remaining activity at 3 µM (5-LOX [2]; [5]): 75.5 ± 4.5%; remaining activity at 1 µM (5-LOX [4]; [6]): 16.9 ± 6.6%
Cc1cc(O)cc2c1O[C@](C)(CCC[C@H](C)CCC[C@H](C)CCCC(C)C)CC2 [Compound 1d, δ-tocopherol] | – | – | – | – | IC50 (5-LOX [1]): > 3000 nM; remaining activity at 3 µM (5-LOX [2]; [5]): 107 ± 3.2%; IC50 (5-LOX [4]): 600 ± 250 nM; remaining activity at 1 µM (5-LOX [4]; [6]): 43.3 ± 7.2%
COCOc1cc(C)c2c(c1C=O)CC[C@@](C)(CCC[C@H](C)CCC[C@H](C)CCCC(C)C)O2 [Compound 4, (R)-6-(Methoxymethoxy)-2,8-dimethyl-2-((4R,8R)-4,8,12-trimethyltridecyl)chromane-5-carbaldehyde] | – | – | – | – | IC50 (5-LOX [2]): > 3000 nM; remaining activity at 3 µM (5-LOX [2]; [5]): 91.9 ± 5.3%; IC50 (5-LOX [4]): > 1000 nM; remaining activity at 1 µM (5-LOX [4]; [6]): 77.3 ± 17.2%
C/C(=C\CC/C(C)=C/CC[C@]1(C)CCc2c(CN3CCCC3)c(O)cc(C)c2O1)CCC=C(CO)CO [Compound 35, 2-((4E,8E)-11-((R)-6-Hydroxy-2,8-dimethyl-5-(pyrrolidin-1-ylmethyl)chroman-2-yl)-4,8-dimethylundeca-4,8-dien-1-ylidene)propane-1,3-diol] | 17.4 ± 2.4% | 1900 ± 110 nM | 170 ± 30 nM | 4.1 ± 0.2% | –
C/C(=C\CC/C(C)=C/CC[C@]1(C)CCc2c(CO)c(O)cc(C)c2O1)CCC=C1COC(c2ccc([N+](=O)[O-])cc2)OC1 (stereo partly drawn) [Compound 48, (2R)-2-((3E,7E)-4,8-Dimethyl-11-(2-(4-nitrophenyl)-1,3-dioxan-5-ylidene)undeca-3,7-dien-1-yl)-5-(hydroxymethyl)-2,8-dimethylchroman-6-ol] | 15.4 ± 1.9% | – | – | 14 ± 3.2% | IC50 (5-LOX [2]): 490 ± 130 nM; IC50 (5-LOX [4]): 210 ± 130 nM
C/C(=C\CC/C(C)=C/CC[C@]1(C)CCc2c(CN3CCN(C)CC3)c(O)cc(C)c2O1)CCC=C(CO)CO [Compound 39, 2-((4E,8E)-11-((R)-6-Hydroxy-2,8-dimethyl-5-((4-methylpiperazin-1-yl)methyl)chroman-2-yl)-4,8-dimethylundeca-4,8-dien-1-ylidene)propane-1,3-diol] | 21.6 ± 6.8% | 2030 ± 160 nM | 310 ± 70 nM | 16 ± 1.9% | –
C/C(=C\CC[C@]1(C)CCc2cc(O)cc(C)c2O1)CC/C=C(\C)CCC(=O)O [Compound 15b, (4E,8E)-11-((R)-6-Hydroxy-2,8-dimethylchroman-2-yl)-4,8-dimethylundeca-4,8-dienoic Acid] | 32 ± 9.8% | 2190 ± 400 nM | 470 ± 140 nM | 28.8 ± 5.2% | –
C/C(=C\CC/C(C)=C/CC[C@]1(C)CCc2c(CN(C)C)c(O)cc(C)c2O1)CCC=C(CO)CO [Compound 36, 2-((4E,8E)-11-((R)-5-((Dimethylamino)methyl)-6-hydroxy-2,8-dimethylchroman-2-yl)-4,8-dimethylundeca-4,8-dien-1-ylidene)propane-1,3-diol] | 63.9 ± 14.4% | > 3000 nM | 110 ± 20 nM | 3.7 ± 0.4% | –
COC(=O)/C(C)=C/CC/C(C)=C/CC/C(C)=C/CC[C@]1(C)CCc2c(c(C)cc(O)c2C(=O)OC)O1 [Compound 25, (R)-Methyl-6-hydroxy-2-((3E,7E,11E)-13-methoxy-4,8,12-trimethyl-13-oxotrideca-3,7,11-trien-1-yl)-2,8-dimethylchroman-5-carboxylate] | 79.9 ± 3.6% | > 3000 nM | > 1000 nM | 54.5 ± 8.4% | –
Cc1cc(O)cc2c1O[C@](C)(CCC=C(CO)CO)CC2 [Compound 29, (R)-2-(3-(6-Hydroxy-2,8-dimethylchroman-2-yl)propylidene)propane-1,3-diol] | 86.4 ± 0.8% | > 3000 nM | > 1000 nM | 79.7 ± 3.5% | –
COc1ccc(C2OCC(=CCC/C(C)=C/CC/C(C)=C/CC[C@]3(C)CCc4c(C)c(O)c(CO)c(C)c4O3)CO2)cc1OC (stereo partly drawn) [Compound 46, (2R)-2-((3E,7E)-11-(2-(3,4-Dimethoxyphenyl)-1,3-dioxan-5-ylidene)-4,8-dimethylundeca-3,7-dien-1-yl)-7-(hydroxymethyl)-2,5,8-trimethylchroman-6-ol] | 22.2 ± 8.8% | – | – | 0.7 ± 0.1% | IC50 (5-LOX [2]): 390 ± 180 nM; IC50 (5-LOX [4]): 90 nM
C/C(=C\CC[C@]1(C)CCc2c(C)c(O)c(C)c(C)c2O1)CC/C=C(\C)CCC(=O)O [Compound 15a, (4E,8E)-11-((R)-6-Hydroxy-2,5,7,8-tetramethylchroman-2-yl)-4,8-dimethylundeca-4,8-dienoic Acid] | 10.6 ± 5.8% | 450 ± 120 nM | 440 ± 70 nM | 11.5 ± 1.8% | –
C/C(=C\CC/C(C)=C/CC[C@]1(C)CCc2c(CN3CCCCC3)c(O)cc(C)c2O1)CCC=C(CO)CO [Compound 38, 2-((4E,8E)-11-((R)-6-Hydroxy-2,8-dimethyl-5-(piperidin-1-ylmethyl)chroman-2-yl)-4,8-dimethylundeca-4,8-dien-1-ylidene)propane-1,3-diol] | 11.7 ± 1.8% | 1950 ± 70 nM | 110 ± 20 nM | 5.1 ± 0.9% | –
C/C(=C\CC/C(C)=C/CC[C@]1(C)CCc2cc(OC(=O)CCC(=O)O)cc(C)c2O1)CCC=C(CO)CO [Compound 31, 4-(((R)-2-((3E,7E)-13-Hydroxy-12-(hydroxymethyl)-4,8-dimethyltrideca-3,7,11-trien-1-yl)-2,8-dimethylchroman-6-yl)oxy)-4-oxobutanoic Acid] | – | 450 ± 100 nM | 90 ± 30 nM | 1.1 ± 0.6% | remaining activity at 1 µM (5-LOX [2]; read-out: 5-LOX PMNL residual activity at 1 μM (cells marked b)): 26.4 ± 6.7%
C/C(=C\CC/C(C)=C/CC[C@]1(C)CCc2c(CN(C)C)c(O)c(CN(C)C)c(C)c2O1)CC/C=C(\C)C(=O)O [Compound 24] | 82.1 ± 24.1% | > 3000 nM | > 1000 nM | 95.2 ± 7.9% | –
C/C(=C\CC/C(C)=C/CC[C@]1(C)CCc2cc(O)cc(C)c2O1)CC/C=C(/C=O)CO [Compound 11] | – | – | – | – | IC50 (5-LOX [2]): 570 ± 90 nM; remaining activity at 1 µM (5-LOX [2]; read-out: 5-LOX PMNL residual activity at 1 µM (Table S1, cell marked b)): 17.6 ± 1.3%; IC50 (5-LOX [4]): 120 ± 50 nM; remaining activity at 1 µM (5-LOX [4]; [6]): 0.4 ± 0.3%
C/C(=C\CC[C@]1(C)CCc2c(C)c(O)cc(C)c2O1)CC/C=C(\C)CCCC(C)C(=O)O (stereo partly drawn) [Compound 19a, (6E,10E)-13-((R)-6-Hydroxy-2,5,8-trimethylchroman-2-yl)-2,6,10-trimethyltrideca-6,10-dienoic Acid] | 14.2 ± 6.5% | 810 ± 330 nM | 810 ± 80 nM | 41.2 ± 6.2% | –
C/C(=C\CC/C(C)=C/CC[C@]1(C)CCc2cc(O)cc(C)c2O1)CC/C=C/C(=O)O [Compound 14, (2E,6E,10E)-13-[(2R)-6-Hydroxy-2,8-dimethyl-3,4-dihydro-2H-1-benzopyran-2-yl]-6,10-dimethyltrideca-2,6,10-trienoic Acid] | 26.9 ± 4.8% | 2200 ± 140 nM | 440 ± 80 nM | 24.5 ± 2.8% | –
Cc1cc(O)cc2c1O[C@](C)(CC/C=C/C(=O)O)CC2 [Compound 17, (2E)-5-[(2R)-6-Hydroxy-2,8-dimethyl-3,4-dihydro-2H-1-benzopyran-2-yl]pent-2-enoic Acid] | 101 ± 5.2% | > 3000 nM | > 1000 nM | 65.3 ± 25.2% | –
CC(=O)c1cc2c(C)c3c(c(C)c2oc1=O)CC[C@@](C)(CC/C=C(\C)CC/C=C(\C)CCC=C(CO)CO)O3 [Compound 41, (R)-3-Acetyl-7-((3E,7E)-13-hydroxy-12-(hydroxymethyl)-4,8-dimethyltrideca-3,7,11-trien-1-yl)-5,7,10-trimethyl-8,9-dihydropyrano[2,3-g]chromen-2(7H)-one] | 12.4 ± 0.7% | 1250 ± 200 nM | 630 ± 130 nM | 35.1 ± 5.7% | –
